“Also recorded” adds a separate entry of the source.
What was measured:
[1] = system: α-tubulin acetylation in the presence of ITSA1; experiment: ITSA1+AcTubulin assay: suppression of induced acetylation by ITSA1; type: cell-based, human; settings: ITSA1 50 μM, A549 cells
Method: A549 cells were seeded at a density of 4,000 cells/50 μl in DMEM+ in white tissue culture-treated 384-well plates (Nalge Nunc) using a Multidrop 384 liquid dispenser (Labsystems). Library small molecules were pinned twice (100-150 nl/pin) from ˜1 mM stock solutions (DMSO) and incubated for 18 hours. For the ITSA1+AcTubulin assay, ITSA1 (50 μM) was added four hours after pin-transfer of library molecules. Media was aspirated with a 16-channel wand. […] Plates were read on an Analyst plate reader (LJL Biosystems) with an integration time of 0.1 seconds.
Bromodeoxyuridine labeling and fluorescence-activated cell sorting (FACS) were performed as described (K. M. Koeller et al., Chemistry & Biology, 10 (5) (2003) pp. 397-410). […]

NIH-3T3 cells = experiment: Transwell cell migration assay; type: cell-based, mouse; settings: wild-type (Neo) and HDAC6-overexpressing cells, 22 h; tubacin 2-20 μM, niltubacin 20 μM
Method: For Transwell migration assays, wild-type or HDAC6 overexpressing NIH-3T3 cells were seeded (150,000 cells/well) in the upper chamber (uncoated polycarbonate membrane, 6.5 mm, 8 μm) in DMEM+ media with compounds added as indicated. After incubation (22 hours), non-migrated cells were removed using cotton swabs and remaining cells stained in Harris Hematoxylin solution. For each treatment, cells within a region (spanning the maximum diameter) of three separate membranes were counted under low magnification on a Leitz Laborlux microscope. For DMSO treatments the average count was ˜600 cells/region. Images were obtained using a Hitachi HV-C12 CCD camera.

O=C(CCCCCCC(=O)Nc1ccc([C@@H]2OC(c3ccc(CO)cc3)C[C@H](CSc3nc(-c4ccccc4)c(-c4ccccc4)o3)O2)cc1)NO (some centres unmarked) [tubacin]
suppression of the induced acetylation by ITSA1 [1]: partially suppressed by ITSA1
cell migration (NIH-3T3 cells): inhibited the migration of wild-type (Neo) NIH-3T3 cells; also recorded: inhibited the migration of both wild-type and HDAC6-overexpressing cells

From patent publication US8178579B2, “Dioxanes and uses thereof” (President and Fellows of Harvard College, priority 2001, dated 2012)
